Assay results from patent publication US7838674B2, “Tetracyclic lactame derivatives” (Novartis AG, priority 2007, dated 2010).
Structures can show the parent of a compound that is named as a salt.

Target: T1, MAPKAPK2 enzyme (HIS-MK2, Invitrogen PV4019) (Homo sapiens, UniProt P49137)
T1 construct: His; purchased Invitrogen PV4019
Assay: Alternative MAPKAPK2 assay (Caliper microfluidic mobility shift, HSP27-peptide)
Format: biochemical
Conditions: HIS-MK2 0.013 nM, ATP 10 μM, 60 min at 30° C.

T1 sequence (P49137 whole entry): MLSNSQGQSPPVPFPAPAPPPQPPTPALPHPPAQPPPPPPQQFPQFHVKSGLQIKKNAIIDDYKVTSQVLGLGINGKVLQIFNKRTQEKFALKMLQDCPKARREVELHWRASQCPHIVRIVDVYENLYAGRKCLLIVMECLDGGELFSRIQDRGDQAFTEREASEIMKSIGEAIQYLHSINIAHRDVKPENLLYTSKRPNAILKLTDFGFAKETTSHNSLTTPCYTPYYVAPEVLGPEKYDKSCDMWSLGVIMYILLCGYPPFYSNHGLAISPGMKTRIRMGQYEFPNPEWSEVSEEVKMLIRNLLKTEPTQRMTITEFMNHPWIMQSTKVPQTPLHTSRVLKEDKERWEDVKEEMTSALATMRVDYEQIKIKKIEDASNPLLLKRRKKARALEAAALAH

| Structure (SMILES) | IC50 [nM] |
| --- | --- |
| Cn1c2c(c3c1-c1cc(-c4cccnc4)ncc1CC3)C(=O)NC1(CNC1)C2 [Example 153, 2-(3-Amino-azetidin-3-ylmethyl)-8-(pyridin-3-yl)-1-methyl-4,5-dihydro-1H-pyrrolo[2,3-f]isoquinoline-3-carboxylic acid lactam hydrochloride] | 17 |
| COc1ccc(-c2ncc3c(n2)-c2[nH]c4c(c2CC3)C(=O)NCC42CNC2)cc1 [Example 206, 2-(3-Aminomethyl-azetidin-3-yl)-8-(4-methoxy-phenyl)-4,5-dihydro-1H-1,7,9-triaza-cyclopenta[a]naphthalene-3-carboxylic acid lactam hydrochloride] | < 3 |
| C#Cc1cc(-c2cc3c(cn2)CCc2c-3[nH]c3c2C(=O)NC2(CC2)C3)ccc1OC [Example 75, 2-(1-Amino-cyclopropylmethyl)-8-(3-ethynyl-4-methoxy-phenyl)-4,5-dihydro-1H-pyrrolo[2,3-f]isoquinoline-3-carboxylic acid lactam] | 98 |
| Cn1c2c(c3c1-c1cc(-c4ccc(F)nc4)ncc1CC3)C(=O)NC1(CNC1)C2 [Example 134, 2-(3-Amino-azetidin-3-ylmethyl)-8-(6-fluoro-pyridin-3-yl)-1-methyl-4,5-dihydro-1H-pyrrolo[2,3-f]isoquinoline-3-carboxylic acid lactam hydrochloride] | 20 |
| O=C1NC2(CC2)C2(CNC2)c2[nH]c3c(c21)CCc1cnc(-c2cccc(F)c2)nc1-3 [Example 212, 2-[3-(1-Amino-cyclopropyl)-azetidin-3-yl]-8-(3-fluoro-phenyl)-4,5-dihydro-1H-1,7,9-triaza-cyclopenta[a]naphthalene-3-carboxylic acid lactam hydrochloride] | 5 |
| O=C1NC2(CNC2)Cc2[nH]c3c(c21)CCc1cnc(-c2cccc(Br)c2)nc1-3 [Example 285, 2-(3-Amino-azetidin-3-ylmethyl)-8-(3-bromo-phenyl)-4,5-dihydro-1H-1,7,9-triaza-cyclopenta[a]naphthalene-3-carboxylic acid lactam hydrochloride] | 7 |
| COc1ccc(-c2cc3c(cn2)CCc2c-3[nH]c3c2C(=O)NC2(CC2)C3)cc1F [Example 238, 2-(1-Amino-cyclopropylmethyl)-8-(3-fluoro-4-methoxy-phenyl)-4,5-dihydro-1H-pyrrolo[2,3-f]isoquinoline-3-carboxylic acid lactam] | 68 |
| CC(C)(N)C#Cc1ccc(-c2cc3c(cn2)CCc2c-3[nH]c3c2C(=O)NC2(CC2)C3)cc1 [Example 82, 2-(1-Amino-cyclopropylmethyl)-8-[4-(3-amino-3-methyl-but-1-ynyl)-phenyl]-4,5-dihydro-1H-pyrrolo[2,3-f]isoquinoline-3-carboxylic acid lactam] | 24 |
| O=C(NCc1ccccc1)c1cccc(-c2cc3c(cn2)CCc2c-3[nH]c3c2C(=O)NCC32CN(CC3CC3)C2)c1 [Example 261, 2-(3-Aminomethyl-1-cyclopropylmethyl-azetidin-3-yl)-8-(3-benzylcarbamoyl-phenyl)-4,5-dihydro-1H-pyrrolo[2,3-f]isoquinoline-3-carboxylic acid lactam] | 11 |
| C#Cc1cc(-c2cc3c(cn2)CCc2c-3[nH]c3c2C(=O)NCC32CC2)ccc1OC [Example 120, 2-(1-Aminomethyl-cyclopropyl)-8-(3-ethynyl-4-methoxy-phenyl)-4,5-dihydro-1H-pyrrolo[2,3-f]isoquinoline-3-carboxylic acid lactam] | 40 |
| COc1ncc(-c2cc3c(cn2)CCc2c-3[nH]c3c2C(=O)NC2(CC2)C3)s1 [Example 283, 2-(1-Amino-cyclopropylmethyl)-8-(2-methoxy-5-thiazolyl)-4,5-dihydro-1H-pyrrolo[2,3-f]isoquinoline-3-carboxylic acid lactam] | 98 |
| O=C1NCC2(CNC2)c2[nH]c3c(c21)CCc1cnc(-c2ccc(F)nc2)cc1-3 [Example 160, 2-(3-Aminomethyl-azetidin-3-yl)-8-(6-fluoro-pyridin-3-yl)-4,5-dihydro-1H-pyrrolo[2,3-f]isoquinoline-3-carboxylic acid lactam hydrochloride] | < 3 |
| CN1CC2(CNC(=O)c3c4c(n(C)c32)-c2cc(-c3ccc(F)nc3)ncc2CC4)C1 [Example 161, 2-(3-Aminomethyl-1-methyl-azetidin-3-yl)-8-(6-fluoro-pyridin-3-yl)-1-methyl-4,5-dihydro-1H-pyrrolo[2,3-f]isoquinoline-3-carboxylic acid lactam] | 86 |
| CN(C)c1ccc(-c2cc3c(cn2)CCc2c-3[nH]c3c2C(=O)NCC32CC2)cn1 [Example 117] | 19 |
| COc1cncc(-c2cc3c(cn2)CCc2c-3[nH]c3c2C(=O)NCC32CC2)c1 [Example 55, 2-(1-Aminomethyl-cyclopropyl)-8-(5-methoxy-pyridin-3-yl)-4,5-dihydro-1H-pyrrolo[2,3-f]isoquinoline-3-carboxylic acid lactam] | 11 |
| CN(C)c1ccc(-c2cc3c(cn2)CCc2c-3[nH]c3c2C(=O)NC2(CC2)C3)cn1 [Example 68, 2-(1-Amino-cyclopropylmethyl)-8-6-dimethylamino-pyridin-3-yl-4,5-dihydro-1H-pyrrolo[2,3-f]isoquinoline-3-carboxylic acid lactam] | 49 |
| O=C1NCC2(CC2)c2[nH]c3c(c21)CCc1cnc(-c2cncc(F)c2)cc1-3 [Example 112, 2-(1-Aminomethyl-cyclopropyl)-8-(5-fluoro-pyridin-3-yl)-4,5-dihydro-1H-pyrrolo[2,3-f]isoquinoline-3-carboxylic acid lactam] | 9 |
| CC(C)N1CCN(c2ccc(-c3cc4c(cn3)CCc3c-4[nH]c4c3C(=O)NCC43CC3)cc2C#N)CC1 [Example 314, 2-(4-Isopropyl-piperazin-1-yl)-10-spirocyclopropyl-5-(7-oxo-6,7,8,9,10,11-hexahydro-5H-3,8,11-triaza-benzo[a]fluoren-2-yl)-benzonitrile] | 12 |
| COc1ccc(-c2cc3c(cn2)CCc2c-3oc3c2C(=O)NC2(CNC2)C3)cc1 [Example 41, 2-(3-Amino-azetidin-3-ylmethyl)-8-(4-methoxy-phenyl)-4,5-dihydro-furo[2,3-f]isoquinoline-3-carboxylic acid lactam hydrochloride] | 21 |

Next, values leading:

| IC50 [nM] | Structure (SMILES) |
| --- | --- |
| 79 | COCCN1CC2(CNC(=O)c3c2[nH]c2c3CCc3cnc(-c4cccc(Cl)c4)cc3-2)C1 [Example 181, 2-[3-Aminomethyl-1-(2-methoxy-ethyl)-azetidin-3-yl]-8-(3-chloro-phenyl)-4,5-dihydro-1H-pyrrolo[2,3-f]isoquinoline-3-carboxylic acid lactam] |
| 23 | COc1ccc(-c2cc3c(cn2)CCc2c-3[nH]c3c2C(=O)NC2(CC2)C32CC2)cn1 [Example 199, 2-(1′-Amino-bicyclopropyl-1-yl)-8-[6-methoxy-pyridin-3-yl]-4,5-dihydro-1H-pyrrolo[2,3-f]isoquinoline-3-carboxylic acid lactam] |
| 9 | CN1CCN(c2ccc(-c3cc4c(cn3)CCc3c-4[nH]c4c3C(=O)NC3(CC3)C4)cc2C#N)CC1 [Example 321, 2-(4-Methyl-piperazin-1-yl)-9-spirocyclopropyl-5-(7-oxo-6,7,8,9,10,11-hexahydro-5H-3,8,11-triaza-benzo[a]fluoren-2-yl)-benzonitrile] |
| 75 | N#Cc1ccc(-c2cc3c(cn2)CCc2c-3[nH]c3c2C(=O)NC2(CC2)C3)cc1 [Example 60, 2-(1-Amino-cyclopropylmethyl)-8-(4-cyano-phenyl)-4,5-dihydro-1H-pyrrolo[2,3-f]isoquinoline-3-carboxylic acid lactam] |
| 38 | CN(C)c1ccc(-c2cc3c(cn2)CCc2c-3[nH]c3c2C(=O)NC2(CC2)C32CC2)cn1 [Example 197, 2-(1′-Amino-bicyclopropyl-1-yl)-8-(6-dimethylamino-pyridin-3-yl)-4,5-dihydro-1H-pyrrolo[2,3-f]isoquinoline-3-carboxylic acid lactam] |
| 5 | Cc1ccc(-c2cc3c(cn2)CCc2c-3[nH]c3c2C(=O)NCC32CC2)cn1 [Example 111, 2-(1-Aminomethyl-cyclopropyl)-8-(6-methyl-pyridin-3-yl)-4,5-dihydro-1H-pyrrolo[2,3-f]isoquinoline-3-carboxylic acid lactam] |
| 38 | N#Cc1cc(-c2cc3c(cn2)CCc2c-3[nH]c3c2C(=O)NCC32CC2)ccc1CN1CCOCC1 [Example 319, 2-Morpholin-4-ylmethyl-10-spirocyclopropyl-5-(7-oxo-6,7,8,9,10,11-hexahydro-5H-3,8,11-triaza-benzo[a]fluoren-2-yl)-benzonitrile] |
| < 3 | CN1CC2(C1)c1[nH]c3c(c1C(=O)NC21CC1)CCc1cnc(-c2ccc(OCCN4CCOCC4)cc2)cc1-3 [Example 259, 2-[3-(1-Amino-cyclopropyl)-1-methyl-azetidin-3-yl]-8-[4-(2-morpholin-4-yl-ethoxy)-phenyl]-4,5-dihydro-1H-pyrrolo[2,3-f]isoquinoline-3-carboxylic acid lactam] |
| < 3 | CN1CC2(C1)c1[nH]c3c(c1C(=O)NC21CC1)CCc1cnc(-c2cccc(Cl)c2)cc1-3 [Example 224, 2-[3-(1-Amino-cyclopropyl)-1-methyl-azetidin-3-yl]-8-(3-chlorophenyl)-4,5-dihydro-1H-pyrrolo[2,3-f]isoquinoline-3-carboxylic acid lactam] |
| 20 | O=C1NC2(CC2)C2(CC2)c2[nH]c3c(c21)CCc1cnc(-c2ccc(OC4CCOCC4)nc2)cc1-3 [Example 198, 2-(1′-Amino-bicyclopropyl-1-yl)-8-[6-(tetrahydro-pyran-4-yloxy)-pyridin-3-yl]-4,5-dihydro-1H-pyrrolo[2,3-f]isoquinoline-3-carboxylic acid lactam] |
| 93 | CN1CCN(c2ccc(-c3cc4c(cn3)CCc3c-4[nH]c4c3C(=O)NC3(CC3)C4)cc2)CC1 [Example 217, 2-(1-Amino-cyclopropylmethyl)-8-(4-methyl-piperazin-1-yl-phenyl)-4,5-dihydro-1H-pyrrolo[2,3-f]isoquinoline-3-carboxylic acid lactam] |
